Reference: US8574563B2 (Bristol-Myers Squibb Company, priority 2006, dated 2013)
Read-outs that look alike come from different tables or passages of the source.

System: HCV 1b-377-neo replicon cells
Experiment: HCV replicon assay, HCV 1b-377-neo replicon cells (1b FRET)
Type: cell-based, Hepatitis C virus genotype 1b
Details: HCV 1b-377-neo replicon cells, HCV 1b genotype, read-out: EC50 range against HCV 1b (Table 2, Range)
How it was run: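 Compounds tested in HCV genotype 1b-377-neo replicon cells with a FRET read-out. Cells resistant to a reference NS5A inhibitor through a Y2065H NS5A mutation were run alongside wild-type cells.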

Compound | EC50 (Hepatitis C virus) [nM] | EC50 [nM]
COC(=O)N[C@@H](C(=O)N1CCC[C@H]1c1ncc(-c2ccc(-c3ccc(-c4cnc([C@@H]5CCCN5C(=O)C5(C(F)(F)F)CC5)[nH]4)cc3)cc2)[nH]1)c1ccccc1 [Example 84-32, methyl ((1R)-2-oxo-1-phenyl-2-((2S)-2-(5-(4′-(2-((2S)-1-((1-(trifluoromethyl)cyclopropyl)carbonyl)-2-pyrrolidinyl)-1H-imidazol-5-yl)-4-biphenylyl)-1H-imidazol-2-yl)-1-pyrrolidinyl)ethyl)carbamate] | 0.001 to 0.999 | 
COC(=O)N[C@@H](C(=O)N1CCC[C@H]1c1ncc(-c2ccc(-c3ccc(-c4cnc([C@@H]5CCCN5C(=O)c5ccc(N(C)C)cc5)[nH]4)cc3)cc2)[nH]1)c1ccccc1 [Example 84-33, methyl ((1R)-2-((2S)-2-(5-(4′-(2-((2S)-1-(4-(dimethylamino)benzoyl)-2-pyrrolidinyl)-1H-imidazol-5-yl)-4-biphenylyl)-1H-imidazol-2-yl)-1-pyrrolidinyl)-2-oxo-1-phenylethyl)carbamate] | 0.001 to 0.999 | 
COC(=O)N[C@@H](C(=O)N1CCC[C@H]1c1ncc(-c2ccc(-c3ccc(-c4cnc([C@@H]5CCCN5C(=O)[C@H]5CC[C@@H](NC(=O)OC(C)(C)C)CC5)[nH]4)cc3)cc2)[nH]1)c1ccccc1 [Example 84-35, methyl ((1R)-2-((2S)-2-(5-(4′-(2-((2S)-1-((cis-4-((tert-butoxycarbonyl)amino)cyclohexyl)carbonyl)-2-pyrrolidinyl)-1H-imidazol-5-yl)-4-biphenylyl)-1H-imidazol-2-yl)-1-pyrrolidinyl)-2-oxo-1-phenylethyl)carbamate] | 0.001 to 0.999 | 
COC(=O)N[C@@H](C(=O)N1CCC[C@H]1c1ncc(-c2ccc(-c3ccc(-c4cnc([C@@H]5CCCN5C(=O)C5CCN(C(=O)OC(C)(C)C)CC5)[nH]4)cc3)cc2)[nH]1)c1ccccc1 [Example 84-36, tert-butyl 4-(((2S)-2-(5-(4′-(2-((2S)-1-((2R)-2-((methoxycarbonyl)amino)-2-phenylacetyl)-2-pyrrolidinyl)-1H-imidazol-5-yl)-4-biphenylyl)-1H-imidazol-2-yl)-1-pyrrolidinyl)carbonyl)-1-piperidinecarboxylate] | 0.001 to 0.999 | 
COC(=O)N[C@@H](C(=O)N1CCC[C@H]1c1ncc(-c2ccc(-c3ccc(-c4cnc([C@@H]5CCCN5C(=O)C(c5ccccc5)c5ccccc5)[nH]4)cc3)cc2)[nH]1)c1ccccc1 [Example 84-38, methyl ((1R)-2-((2S)-2-(5-(4′-(2-((2S)-1-(diphenylacetyl)-2-pyrrolidinyl)-1H-imidazol-5-yl)-4-biphenylyl)-1H-imidazol-2-yl)-1-pyrrolidinyl)-2-oxo-1-phenylethyl)carbamate] | 0.001 to 0.999 | 
COC(=O)N[C@@H](C(=O)N1CCC[C@H]1c1ncc(-c2ccc(-c3ccc(-c4cnc([C@@H]5CCCN5C(=O)CCC(C)=O)[nH]4)cc3)cc2)[nH]1)c1ccccc1 [Example 84-39, methyl ((1R)-2-oxo-2-((2S)-2-(5-(4′-(2-((2S)-1-(4-oxopentanoyl)-2-pyrrolidinyl)-1H-imidazol-5-yl)-4-biphenylyl)-1H-imidazol-2-yl)-1-pyrrolidinyl)-1-phenylethyl)carbamate] | 0.001 to 0.999 | 
COC(=O)N[C@@H](C(=O)N1CCC[C@H]1c1ncc(-c2ccc(-c3ccc(-c4cnc([C@@H]5CCCN5C(=O)c5ccccc5F)[nH]4)cc3)cc2)[nH]1)c1ccccc1 [Example 84-40, methyl ((1R)-2-((2S)-2-(5-(4′-(2-((2S)-1-(2-fluorobenzoyl)-2-pyrrolidinyl)-1H-imidazol-5-yl)-4-biphenylyl)-1H-imidazol-2-yl)-1-pyrrolidinyl)-2-oxo-1-phenylethyl)carbamate] | 0.001 to 0.999 | 
COC(=O)N[C@@H](C(=O)N1CCC[C@H]1c1ncc(-c2ccc(-c3ccc(-c4cnc([C@@H]5CCCN5C(=O)c5cscn5)[nH]4)cc3)cc2)[nH]1)c1ccccc1 [Example 84-44, methyl ((1R)-2-oxo-1-phenyl-2-((2S)-2-(5-(4′-(2-((2S)-1-(1,3-thiazol-4-ylcarbonyl)-2-pyrrolidinyl)-1H-imidazol-5-yl)-4-biphenylyl)-1H-imidazol-2-yl)-1-pyrrolidinyl)ethyl)carbamate] | 0.001 to 0.999 | 
COC(=O)N[C@@H](C(=O)N1CCC[C@H]1c1ncc(-c2ccc(-c3ccc(-c4cnc([C@@H]5CCCN5C(=O)C(c5cccs5)N(C)C)[nH]4)cc3)cc2)[nH]1)c1ccccc1 (stereo partly drawn) [Example 84-46, methyl ((1R)-2-((2S)-2-(5-(4′-(2-((2S)-1-((dimethylamino)(2-thienyl)acetyl)-2-pyrrolidinyl)-1H-imidazol-5-yl)-4-biphenylyl)-1H-imidazol-2-yl)-1-pyrrolidinyl)-2-oxo-1-phenylethyl)carbamate] | 0.001 to 0.999 | 
COC(=O)N[C@@H](C(=O)N1CCC[C@H]1c1ncc(-c2ccc(-c3ccc(-c4cnc([C@@H]5CCCN5C(=O)C(c5ccsc5)N(C)C)[nH]4)cc3)cc2)[nH]1)c1ccccc1 (stereo partly drawn) [Example 84-47, methyl ((1R)-2-((2S)-2-(5-(4′-(2-((2S)-1-((dimethylamino)(3-thienyl)acetyl)-2-pyrrolidinyl)-1H-imidazol-5-yl)-4-biphenylyl)-1H-imidazol-2-yl)-1-pyrrolidinyl)-2-oxo-1-phenylethyl)carbamate] | 0.001 to 0.999 | 
COC(=O)N[C@@H](C(=O)N1CCC[C@H]1c1ncc(-c2ccc(-c3ccc(-c4cnc([C@@H]5CCCN5C(=O)C(c5csc(C)n5)N(C)C)[nH]4)cc3)cc2)[nH]1)c1ccccc1 (stereo partly drawn) [Example 84-48, methyl ((1R)-2-((2S)-2-(5-(4′-(2-((2S)-1-((dimethylamino)(2-methyl-1,3-thiazol-4-yl)acetyl)-2-pyrrolidinyl)-1H-imidazol-5-yl)-4-biphenylyl)-1H-imidazol-2-yl)-1-pyrrolidinyl)-2-oxo-1-phenylethyl)carbamate] | 0.001 to 0.999 | 
COC(=O)N[C@@H](C(=O)N1CCC[C@H]1c1ncc(-c2ccc(-c3ccc(-c4cnc([C@@H]5CCCN5C(=O)C(c5noc6ccccc56)N(C)C)[nH]4)cc3)cc2)[nH]1)c1ccccc1 (stereo partly drawn) [Example 84-49, methyl ((1R)-2-((2S)-2-(5-(4′-(2-((2S)-1-(1,2-benzisoxazol-3-yl(dimethylamino)acetyl)-2-pyrrolidinyl)-1H-imidazol-5-yl)-4-biphenylyl)-1H-imidazol-2-yl)-1-pyrrolidinyl)-2-oxo-1-phenylethyl)carbamate] | 0.001 to 0.999 | 
COC(=O)NC(C(=O)N1CCCC1c1ncc(-c2ccc(-c3ccc(-c4cnc(C5CCCN5C(=O)C(c5csc6ccccc56)N(C)C)[nH]4)cc3)cc2)[nH]1)c1ccccc1 [Example 84-50, methyl ((1R)-2-((2S)-2-(5-(4′-(2-((2S)-1-(1-benzothiophen-3-yl(dimethylamino)acetyl)-2-pyrrolidinyl)-1H-imidazol-5-yl)-4-biphenylyl)-1H-imidazol-2-yl)-1-pyrrolidinyl)-2-oxo-1-phenylethyl)carbamate] |  | 0.001 to 0.999
COC(=O)N[C@@H](C(=O)N1CCC[C@H]1c1ncc(-c2ccc(-c3ccc(-c4cnc([C@@H]5CCCN5C(=O)C(c5cccc6ccccc56)N(C)C)[nH]4)cc3)cc2)[nH]1)c1ccccc1 (stereo partly drawn) [Example 84-51, methyl ((1R)-2-((2S)-2-(5-(4′-(2-((2S)-1-((dimethylamino)(1-naphthyl)acetyl)-2-pyrrolidinyl)-1H-imidazol-5-yl)-4-biphenylyl)-1H-imidazol-2-yl)-1-pyrrolidinyl)-2-oxo-1-phenylethyl)carbamate] | 0.001 to 0.999 | 
COC(=O)N[C@@H](C(=O)N1CCC[C@H]1c1ncc(-c2ccc(-c3ccc(-c4cnc([C@@H]5CCCN5C(=O)C(c5cnc6ccccc6c5)N(C)C)[nH]4)cc3)cc2)[nH]1)c1ccccc1 (stereo partly drawn) [Example 84-52, methyl ((1R)-2-((2S)-2-(5-(4′-(2-((2S)-1-((dimethylamino)(3-quinolinyl)acetyl)-2-pyrrolidinyl)-1H-imidazol-5-yl)-4-biphenylyl)-1H-imidazol-2-yl)-1-pyrrolidinyl)-2-oxo-1-phenylethyl)carbamate] | 0.001 to 0.999 | 
COC(=O)N[C@@H](C(=O)N1CCC[C@H]1c1ncc(-c2ccc(-c3ccc(-c4cnc([C@@H]5CCCN5C(=O)C(c5ccc6sc(C)nc6c5)N(C)C)[nH]4)cc3)cc2)[nH]1)c1ccccc1 (stereo partly drawn) [Example 84-53, methyl ((1R)-2-((2S)-2-(5-(4′-(2-((2S)-1-((dimethylamino)(2-methyl-1,3-benzothiazol-5-yl)acetyl)-2-pyrrolidinyl)-1H-imidazol-5-yl)-4-biphenylyl)-1H-imidazol-2-yl)-1-pyrrolidinyl)-2-oxo-1-phenylethyl)carbamate] | 0.001 to 0.999 | 
COC(=O)N[C@@H](C(=O)N1CCC[C@H]1c1ncc(-c2ccc(-c3ccc(-c4cnc([C@@H]5CCCN5C(=O)C(c5cccc(C(F)(F)F)c5)N(C)C)[nH]4)cc3)cc2)[nH]1)c1ccccc1 (stereo partly drawn) [Example 84-54, methyl ((1R)-2-((2S)-2-(5-(4′-(2-((2S)-1-((dimethylamino)(3-(trifluoromethyl)phenyl)acetyl)-2-pyrrolidinyl)-1H-imidazol-5-yl)-4-biphenylyl)-1H-imidazol-2-yl)-1-pyrrolidinyl)-2-oxo-1-phenylethyl)carbamate] | 0.001 to 0.999 | 
COC(=O)N[C@@H](C(=O)N1CCC[C@H]1c1ncc(-c2ccc(-c3ccc(-c4cnc([C@@H]5CCCN5C(=O)C(c5ccccc5C(F)(F)F)N(C)C)[nH]4)cc3)cc2)[nH]1)c1ccccc1 (stereo partly drawn) [Example 84-55, methyl ((1R)-2-((2S)-2-(5-(4′-(2-((2S)-1-((dimethylamino)(2-(trifluoromethyl)phenyl)acetyl)-2-pyrrolidinyl)-1H-imidazol-5-yl)-4-biphenylyl)-1H-imidazol-2-yl)-1-pyrrolidinyl)-2-oxo-1-phenylethyl)carbamate] | 0.001 to 0.999 | 
COC(=O)N[C@@H](C(=O)N1CCC[C@H]1c1ncc(-c2ccc(-c3ccc(-c4cnc([C@@H]5CCCN5C(=O)C(c5ccccc5Cl)N(C)C)[nH]4)cc3)cc2)[nH]1)c1ccccc1 (stereo partly drawn) [Example 84-56, methyl ((1R)-2-((2S)-2-(5-(4′-(2-((2S)-1-((2-chlorophenyl)(dimethylamino)acetyl)-2-pyrrolidinyl)-1H-imidazol-5-yl)-4-biphenylyl)-1H-imidazol-2-yl)-1-pyrrolidinyl)-2-oxo-1-phenylethyl)carbamate] | 0.001 to 0.999 | 
